Series [1] deals with caspase-2-null sympathetic neurons. The series is described as follows: Survival of NGF-deprived (TFD) caspase-2-null sympathetic neurons. It counts as cell-based, mouse. The settings on record: caspase-2-null neurons; for protection from TFD-induced death (survival): anti-NGF, BAF 50 μM, DEVD-FMK 10 μM; for protection from NGF withdrawal (survival): anti-NGF plus antisense oligonucleotides, scored daily for three days. Here is the method: (§1) Sympathetic neuron cultures were prepared from 1-day-old wild-type and caspase-2−/− mouse pups (Bergeron et al. 1998). Cultures were grown in 24-well collagen-coated dishes for survival experiments and in 6-well collagen-coated dishes for RNA and protein extraction in RPMI 1640 medium plus 10% horse serum with mouse NGF (100 ng/ml). One day following plating, uridine and 5-fluorodeoxyuridine (10 μM each) were added to the cultures and left for three days to eliminate non-neuronal cells (less than 1% non-neuronal cells remain after 3 days). For survival experiments, on the sixth day following plating, NGF was removed by washing the cultures three times with RPMI 1640 medium plus 10% horse serum, followed by the addition of medium containing anti-mouse NGF (1:200, Sigma). Caspase inhibitors (Enzyme Systems Products) were added as indicated. Each culture was scored, as previously described (Troy et al., 1997), for numbers of living, phase-bright neurons present in the same field at various times. Three replicate cultures were assessed for each condition and data are normalized to numbers of neurons present in each culture at the time of NGF deprivation and reported as mean±SEM. For RNA and protein extraction on the sixth day following plating, RNA and protein were extracted using the Trizol reagent according to the manufacturer's protocol.

Series [2] has as its system wild-type sympathetic neurons. The series can be described thus: Survival of NGF-deprived (TFD) wild-type sympathetic neurons. Particulars: for protection from TFD-induced death (survival): anti-NGF, BAF 50 μM, DEVD-FMK 10 μM; for protection from NGF withdrawal (survival): anti-NGF plus antisense oligonucleotides, scored daily for three days. The format is cell-based, mouse. As to the method:
as §1

Series [3] relates to MIAP3. The series can be described thus: Western blotting of MIAP3 after V-AMIAP3 treatment of PC12 cells. It counts as cell-based. Particulars: within 5 hours. Here is the method: PC12 cells were treated with V-AMIAP3 (240 nM) for 6 hours. Cells lysates containing equal amounts of protein were subjected to Western blotting using the corresponding antisera. Actin staining confirmed equal loading. These are representative blots. Similar results were obtained in 2 independent experiments.
Postnatal day 1 mouse brains were harvested in sample buffer. For antisense down-regulation studies, PC12 cells, grown as previously described, were treated with various antisense constructs for 5 hours and harvested in sample buffer. Equal amounts of protein were separated by 15% PAGE, transferred to nitrocellulose and immunostained as described (Troy et al, 2000). Anti-caspase-9 (MBL) was used at 1:1000, anti-APAF-1 (StressGen) was used at 1:1000, anti-Smac was used at 1:2000, anti-XIAP (StressGen) was used at 1:1000, anti-RAIDD (StressGen) was used at 1:500 and anti-actin (Sigma) was used at 1:200. Visualization was with ECL, using goat-anti-rabbit peroxidase at 1:1000. The relative intensities of the protein bands were quantified using Scion Image 1.55 software (NIH).
(In general: A western blot detects proteins with antibodies after separation by electrophoresis.)

Data on five compounds can be found in US20040254136A1, “Antisense oligonucleotides and related methods for regulating cell death” (priority 2001, published 2004).

“Also recorded” adds a separate entry of the source.

Turning to `COC(=O)CC(NC(=O)OC(C)(C)C)C(=O)CF` (stereo not drawn) [BAF], the “protection from TFD-induced death (survival)” value in series [1] and in series [2] was “protects; also recorded: rescued” throughout.

Regarding `COC(=O)CC[C@H](NC(=O)[C@H](CC(=O)OC)NC(=O)OCc1ccccc1)C(=O)N[C@H](C(=O)N[C@@H](CC(=O)OC)C(=O)CF)C(C)C` [DEVD-FMK], the “protection from TFD-induced death (survival)” value in series [1] is recorded as “provided protection; also recorded: rescued”; in series [2], “provided protection only for caspase-2-null neurons; also recorded: only the caspase-2-null neurons were rescued”.

Take “CTGCCGGTCCGCCTCGTCCAT (chemistry not given here) [V-ACasp9, PENETRATIN1™-linked antisense oligonucleotide to caspase-9]”: the “protection from NGF withdrawal (survival)” value in series [1] was “protected”; in series [2] it was “no protection”.

For the compound “GTTAAAAGTCATCTTCTCTGG (chemistry not given here) [V-AMIAP3, PENETRATIN1™-linked antisense oligonucleotide to MIAP3]”, the “down-regulation of MIAP3” value in series [3] is given as 70%.

Turning to “GTTGTTGTCCATGGTCACTTT (chemistry not given here) [V-ACasp3, PENETRATIN1™-linked antisense oligonucleotide to caspase-3]”, the “protection from NGF withdrawal (survival)” value in series [1] is “protected”; in series [2], “no protection”.
